Results as given in patent publication US20220064196A1, “EGFR Inhibitors, Compositions and Methods Thereof” (Betta Pharmaceuticals Co., Ltd., priority 2019, published 2022).
Like-named read-outs stand apart in the source and are kept apart here.

What was measured:
EGFR L858R/T790M/C797S = EGFR L858R/T790M/C797S (Homo sapiens, UniProt P00533, C797S/L858R/T790M); test: Kinase assay (mobility shift), EGFR L858R/T790M/C797S; format: biochemical
Ba/F3-L858R/T790M/C797S = Ba/F3-L858R/T790M/C797S (Homo sapiens, UniProt P00533, T790M/C797S/L858R, cells depend on it); test: Ba/F3-L858R/T790M/C797S cells proliferation assay (CellTiter Glo); format: cell-based; conditions: cell proliferation, 72 h, read-out: Ba/F3-L858R/T790M/C797S IC50
Ba/F3-L858R/T790M/C797S, sequence (P00533 whole entry T790M/C797S/L858R): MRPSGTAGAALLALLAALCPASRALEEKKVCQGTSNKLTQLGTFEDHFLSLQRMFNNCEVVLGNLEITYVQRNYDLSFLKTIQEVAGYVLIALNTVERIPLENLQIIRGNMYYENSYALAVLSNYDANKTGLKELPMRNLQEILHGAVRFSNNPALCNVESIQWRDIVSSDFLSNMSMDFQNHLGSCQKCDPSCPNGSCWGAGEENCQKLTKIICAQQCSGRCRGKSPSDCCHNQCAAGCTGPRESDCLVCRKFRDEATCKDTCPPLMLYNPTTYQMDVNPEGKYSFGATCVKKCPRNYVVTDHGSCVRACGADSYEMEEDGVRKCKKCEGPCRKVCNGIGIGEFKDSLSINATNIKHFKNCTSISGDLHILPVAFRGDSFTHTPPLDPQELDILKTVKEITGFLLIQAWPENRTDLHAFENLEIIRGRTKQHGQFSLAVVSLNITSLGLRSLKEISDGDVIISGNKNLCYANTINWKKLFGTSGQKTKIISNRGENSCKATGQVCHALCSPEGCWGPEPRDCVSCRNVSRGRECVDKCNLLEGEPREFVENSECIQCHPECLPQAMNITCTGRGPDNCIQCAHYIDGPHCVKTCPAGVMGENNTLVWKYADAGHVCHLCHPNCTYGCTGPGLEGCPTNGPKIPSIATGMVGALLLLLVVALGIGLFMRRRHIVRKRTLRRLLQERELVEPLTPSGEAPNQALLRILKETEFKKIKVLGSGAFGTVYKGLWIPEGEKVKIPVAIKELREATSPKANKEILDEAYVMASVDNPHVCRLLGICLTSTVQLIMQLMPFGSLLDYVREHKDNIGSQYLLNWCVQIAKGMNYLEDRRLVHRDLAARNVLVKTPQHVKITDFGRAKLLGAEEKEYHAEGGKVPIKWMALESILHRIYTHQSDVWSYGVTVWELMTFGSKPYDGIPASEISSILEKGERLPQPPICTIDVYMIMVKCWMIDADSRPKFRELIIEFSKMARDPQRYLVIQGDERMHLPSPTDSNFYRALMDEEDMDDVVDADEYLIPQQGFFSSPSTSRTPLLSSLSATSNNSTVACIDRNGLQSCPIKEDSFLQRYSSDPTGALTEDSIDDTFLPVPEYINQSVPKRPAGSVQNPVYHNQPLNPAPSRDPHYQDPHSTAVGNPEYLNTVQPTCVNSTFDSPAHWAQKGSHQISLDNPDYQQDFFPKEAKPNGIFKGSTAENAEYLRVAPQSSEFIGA
Outline: (§1)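 Ba/F3 cells carrying EGFR Del19/T790M/C797S or L858R/T790M/C797S seeded at 2000 cells/well and exposed 72 h at 37 °C to compound (1000 nM top, 3-fold series, 0.5% DMSO). Viability read by CellTiter-Glo luminescence; IC50 from four-parameter non-linear regression.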

A431 (WT) = test: A431 cells proliferation assay (CellTiter Glo); format: cell-based; conditions: Homo sapiens, A-431; cell proliferation, 72 h
Experimental: Test 4 A431 Cells Proliferation Assay
DMEM and 10% FBS and 1% PS.
a) The medium was preheated in a 37° C. water bath in advance.
b) Remove the cryogenic vials from the liquid nitrogen tank, quickly put it into a 37° C. water bath, and completely melt it in 1 min.
c) Transfer the cell suspension to a 15 mL centrifuge tube containing 8 mL medium, centrifuge 1000 rpm, 5 min.
d) Discard the supernatant, resuspend the cells in 1 mL medium, and transfer to a 75 cm^2 flask containing 15 mL medium, culture the cells in an incubator at 37° C., 5% CO2.
b) Collect cell to a 15 mL centrifuged tube, centrifuge at 1000 rpm for 5 min. Discard the supernatant, count, and make the cell density at 1×10^4 cells/mL, then place it in a 37° C., 5% CO2 incubator.
a) The test compound (20 mM stock solution) was diluted to 2 mM with 100% DMSO as starting concentration then 3-fold serial diluted with “9+0” concentrations. in a 96-well dilution plate (Cat # P-05525, Labcyte);
b) The above compound solution was diluted 1:40 times with culture medium to prepare a 5 fold working solution;
a) Take cells in log phase growth, centrifuge at 1000 rpm for 5 min, then resuspend the cells with culture medium, then count cells;
b) Cells were seeded to 96-well cell culture plate with density at 5000 cells/well;
a) Compounds prepared at step 2 were added to cell plate with 40 μL per well, the final concentrations were 10000, 3333,1111.1, 370.4, 123.5, 41.2, 13.7, 4.6, 1.5 and 0 nM, and the final concentration of DMSO was 0.5%. The blank control well was a culture medium (0.5% DMSO);
b) The cells were incubated for an additional 72 h in the incubator.
a) Remove the 96-well cell culture plate and add 60 μl of CTG reagent (CellTiter Glo kit, promega, Cat # G7573).
b) Plate was shaked for 2 min and then let it cool for 10 min at room temperature.
c) The Luminescence signal value was read using a PerkinElmer reader.
Experimental Data Analysis
Data were analyzed using GraphPad Prism 6.0 software to obtain a fitted curve of compound activity.
Fit the Compound IC50 from non-linear regression equation:
Y=Bottom+(Top-Bottom)/(1+10((LogIC50-X)×HillSlope));
X: The log of the concentration of the compound; Y: Luminescence value.
The cells proliferation assay results are expressed with IC50, shown as Table 3.

Ba/F3-Del19/T790M/C797S = Ba/F3-Del19/T790M/C797S (Homo sapiens, UniProt P00533, T790M/C797S, cells depend on it, form not given); test: Ba/F3-Del19/T790M/C797S cells proliferation assay (CellTiter Glo); format: cell-based; conditions: cell proliferation, 72 h, read-out: Ba/F3-Del19/T790M/C797S IC50
Ba/F3-Del19/T790M/C797S, sequence (P00533 with tags, fused parts or gaps DEL746-750/T790M/C797S, form open): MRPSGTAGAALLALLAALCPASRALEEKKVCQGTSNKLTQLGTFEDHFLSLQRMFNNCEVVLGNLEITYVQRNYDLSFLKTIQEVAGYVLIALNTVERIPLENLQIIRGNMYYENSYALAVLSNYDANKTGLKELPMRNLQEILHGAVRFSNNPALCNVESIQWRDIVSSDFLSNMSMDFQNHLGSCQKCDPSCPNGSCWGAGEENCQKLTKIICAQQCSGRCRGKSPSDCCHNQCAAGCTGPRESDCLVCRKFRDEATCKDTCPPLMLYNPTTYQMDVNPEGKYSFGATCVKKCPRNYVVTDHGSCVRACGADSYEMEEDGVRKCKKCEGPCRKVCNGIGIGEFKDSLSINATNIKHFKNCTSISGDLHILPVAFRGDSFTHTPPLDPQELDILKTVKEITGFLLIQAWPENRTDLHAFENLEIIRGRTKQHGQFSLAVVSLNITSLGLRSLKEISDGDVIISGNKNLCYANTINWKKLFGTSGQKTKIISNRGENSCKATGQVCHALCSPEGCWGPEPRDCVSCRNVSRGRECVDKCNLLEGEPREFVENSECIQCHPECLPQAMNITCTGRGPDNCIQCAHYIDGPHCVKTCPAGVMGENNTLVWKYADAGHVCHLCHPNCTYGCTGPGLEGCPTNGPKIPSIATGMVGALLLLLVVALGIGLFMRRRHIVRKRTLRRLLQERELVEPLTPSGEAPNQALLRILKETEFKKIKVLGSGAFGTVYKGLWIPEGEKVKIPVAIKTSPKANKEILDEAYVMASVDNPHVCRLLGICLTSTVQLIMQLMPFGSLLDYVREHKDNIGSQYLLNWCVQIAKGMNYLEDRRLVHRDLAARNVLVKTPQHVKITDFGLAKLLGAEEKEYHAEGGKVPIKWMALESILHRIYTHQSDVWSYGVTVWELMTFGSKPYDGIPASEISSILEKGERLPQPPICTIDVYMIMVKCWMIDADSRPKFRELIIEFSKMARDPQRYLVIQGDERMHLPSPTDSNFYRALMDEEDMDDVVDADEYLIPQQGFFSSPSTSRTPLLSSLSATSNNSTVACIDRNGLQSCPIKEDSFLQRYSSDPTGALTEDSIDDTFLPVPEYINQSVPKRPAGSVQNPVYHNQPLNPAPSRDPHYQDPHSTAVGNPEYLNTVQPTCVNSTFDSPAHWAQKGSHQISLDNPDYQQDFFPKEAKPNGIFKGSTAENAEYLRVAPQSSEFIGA
Outline: as §1

EGFR Del19/T790M/C797S = EGFR Del19/T790M/C797S (Homo sapiens, UniProt P00533, T790M/C797S, form not given); test: Kinase assay (mobility shift), EGFR Del19/T790M/C797S; format: biochemical
Experimental: (§2) Test 1 Kinase Assay for EGFR Del19/T790M/C797S and EGFR Wildtype
(§3) Enzyme reaction protocol are as follows:
(§4) 1. Preparing 1* Kinase buffer as followed.
(§5) 2. Preparing Compound Concentration Gradient: Compounds were tested at a concentration of 300 nM, diluted to 100-fold final concentration in 100% DMSO solution in 96-well plates, and compounds were diluted 3 times with Precision, 10 concentrations. Each concentration of the compound was then further diluted to a 5-fold final concentration of the intermediate dilution solution using 1* Kinase buffer.
(§6) 3.5 μL of each of the prepared intermediate dilution compounds was separately added to the compound wells of the 384-well plate, and each concentration was tested for duplicate wells; 5 μL of 5% DMSO was added to the negative control wells and the positive control wells, respectively.
(§7) 4. 2.5-fold final concentration of the kinase solution was prepared using 1*Kinase buffer.
(§8) 5. Add 10 μL of 2.5-fold final concentration of kinase solution to the compound well and positive control well; add 10 μL of 1*Kinase buffer to the negative control well.
(§9) 6. Centrifuge at 1000 rpm for 30 seconds, shake the reaction plate and incubate for 10 minutes at room temperature.
(§10) 7. A mixed solution of 2.5 times the final concentration of ATP and Kinase substrate (5-FAM-EEPLYWSFPAKKK-CONH2) was prepared using 1*Kinase buffer.
(§11) 8. 10 μL of a 2.5-fold final concentration of a mixed solution of ATP and a substrate was added to initiate the reaction.
(§12) 9. Centrifuge the 384-well plate at 1000 rpm for 30 seconds, mix by shaking, and incubate at room temperature for the corresponding time.
(§13) 10. Add 30 μL of the stop solution to stop the kinase reaction, centrifuge at 1000 rpm for 30 seconds, and mix by shaking.
(§14) 11. Read the conversion rate with Caliper EZ Reader.
(§15) Convert conversion values to inhibition values:
(§16) Percent inhibition 32 (max-conversion)/(max-min)*100.
(§17) “max” stands for the mean value of the positive control well ratio; “min” stands for the mean value of the negative control well.
(§18) Fit the data in log(inhibitor) vs. response Variable slope of GraphPad Prism 5 to obtain IC50 values.
(§19) Equation used is: Y=Bottom+(Top-Bottom)/(1+(IC50/X)^HillSlope)

[1] = Pharmacokinetic assay, oral administration; format: in vivo; conditions: rat, male SD rats, plasma
Experimental: Test 5 Pharmacokinetic Assay
Male SD rats, oral administration (intragastric administration), 3 in each group. Animals administered by gavage were fasted overnight before the experiment, and the fasting time was from at least 12 hours before administration to 4 hours after administration. The blood was collected using the orbital vein. Time of blood collection by oral administration: 15 min, 30 min, 1 h, 2 h, 4 h, 7 h, 24 h. The blood collection volume was 300 uL, and after anticoagulation with 2.0% EDTA, the blood was centrifuged at 4000 rpm for 5 min, and the blood plasma was taken for about 100 uL, and placed in −20° C. for examination. The plasma sample was analyzed using liquid chromatography tandem mass spectrometry (LC-MS/MS). Plasma concentration-time data for individual animals were analyzed using WinNonlin (V4.1, Pharsight) software with a non-compartmental model and the pharmacokinetic parameters of the test compounds were calculated.

EGFR WT = EGFR WT (Homo sapiens, UniProt P00533); test: Kinase assay (mobility shift), EGFR wildtype; format: biochemical; conditions: top concentration 300 nM
EGFR WT, sequence (P00533 25-1210): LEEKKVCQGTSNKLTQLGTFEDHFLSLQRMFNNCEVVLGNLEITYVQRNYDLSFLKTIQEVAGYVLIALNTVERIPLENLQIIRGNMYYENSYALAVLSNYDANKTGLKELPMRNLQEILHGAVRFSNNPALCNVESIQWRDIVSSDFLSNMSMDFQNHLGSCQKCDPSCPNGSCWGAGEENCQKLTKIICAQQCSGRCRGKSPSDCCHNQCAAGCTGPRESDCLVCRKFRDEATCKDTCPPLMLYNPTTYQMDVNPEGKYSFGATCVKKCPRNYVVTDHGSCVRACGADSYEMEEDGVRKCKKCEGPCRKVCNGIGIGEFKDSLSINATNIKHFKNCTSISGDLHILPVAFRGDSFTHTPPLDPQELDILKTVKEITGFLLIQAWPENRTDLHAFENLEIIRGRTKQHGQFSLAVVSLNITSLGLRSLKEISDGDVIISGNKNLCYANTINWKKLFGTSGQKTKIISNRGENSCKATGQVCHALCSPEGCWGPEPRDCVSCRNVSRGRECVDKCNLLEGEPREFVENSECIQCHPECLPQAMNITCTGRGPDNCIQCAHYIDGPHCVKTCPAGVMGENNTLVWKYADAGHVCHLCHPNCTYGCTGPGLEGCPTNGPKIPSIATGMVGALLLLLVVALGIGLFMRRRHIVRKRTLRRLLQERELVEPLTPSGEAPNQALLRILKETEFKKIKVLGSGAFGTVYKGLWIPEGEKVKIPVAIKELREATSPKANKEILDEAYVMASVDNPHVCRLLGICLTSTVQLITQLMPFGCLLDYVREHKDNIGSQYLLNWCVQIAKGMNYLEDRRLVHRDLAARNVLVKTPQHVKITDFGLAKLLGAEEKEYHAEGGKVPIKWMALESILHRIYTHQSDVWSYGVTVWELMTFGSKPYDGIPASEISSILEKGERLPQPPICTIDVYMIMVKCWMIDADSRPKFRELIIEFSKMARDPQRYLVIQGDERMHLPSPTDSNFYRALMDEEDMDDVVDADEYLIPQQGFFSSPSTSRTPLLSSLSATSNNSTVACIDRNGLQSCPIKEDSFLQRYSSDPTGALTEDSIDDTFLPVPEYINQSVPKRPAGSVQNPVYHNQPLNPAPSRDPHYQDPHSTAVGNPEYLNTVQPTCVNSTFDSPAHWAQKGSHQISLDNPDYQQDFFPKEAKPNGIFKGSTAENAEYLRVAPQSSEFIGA
Experimental: as §2, §3, §4, §5, §6, §7, §8, §9, §10, §11, §12, §13, §14, §15, §16, §17, §18, §19

[2] = p.o. 10 mg/kg, formulation 5% DMSO/5% Solutol/90% normal saline
[3] = p.o. 5 mg/kg, formulation differs per row

EGFR L858R/T790M/C797S, sequence (P00533 25-1210 T790M/C797S/L858R): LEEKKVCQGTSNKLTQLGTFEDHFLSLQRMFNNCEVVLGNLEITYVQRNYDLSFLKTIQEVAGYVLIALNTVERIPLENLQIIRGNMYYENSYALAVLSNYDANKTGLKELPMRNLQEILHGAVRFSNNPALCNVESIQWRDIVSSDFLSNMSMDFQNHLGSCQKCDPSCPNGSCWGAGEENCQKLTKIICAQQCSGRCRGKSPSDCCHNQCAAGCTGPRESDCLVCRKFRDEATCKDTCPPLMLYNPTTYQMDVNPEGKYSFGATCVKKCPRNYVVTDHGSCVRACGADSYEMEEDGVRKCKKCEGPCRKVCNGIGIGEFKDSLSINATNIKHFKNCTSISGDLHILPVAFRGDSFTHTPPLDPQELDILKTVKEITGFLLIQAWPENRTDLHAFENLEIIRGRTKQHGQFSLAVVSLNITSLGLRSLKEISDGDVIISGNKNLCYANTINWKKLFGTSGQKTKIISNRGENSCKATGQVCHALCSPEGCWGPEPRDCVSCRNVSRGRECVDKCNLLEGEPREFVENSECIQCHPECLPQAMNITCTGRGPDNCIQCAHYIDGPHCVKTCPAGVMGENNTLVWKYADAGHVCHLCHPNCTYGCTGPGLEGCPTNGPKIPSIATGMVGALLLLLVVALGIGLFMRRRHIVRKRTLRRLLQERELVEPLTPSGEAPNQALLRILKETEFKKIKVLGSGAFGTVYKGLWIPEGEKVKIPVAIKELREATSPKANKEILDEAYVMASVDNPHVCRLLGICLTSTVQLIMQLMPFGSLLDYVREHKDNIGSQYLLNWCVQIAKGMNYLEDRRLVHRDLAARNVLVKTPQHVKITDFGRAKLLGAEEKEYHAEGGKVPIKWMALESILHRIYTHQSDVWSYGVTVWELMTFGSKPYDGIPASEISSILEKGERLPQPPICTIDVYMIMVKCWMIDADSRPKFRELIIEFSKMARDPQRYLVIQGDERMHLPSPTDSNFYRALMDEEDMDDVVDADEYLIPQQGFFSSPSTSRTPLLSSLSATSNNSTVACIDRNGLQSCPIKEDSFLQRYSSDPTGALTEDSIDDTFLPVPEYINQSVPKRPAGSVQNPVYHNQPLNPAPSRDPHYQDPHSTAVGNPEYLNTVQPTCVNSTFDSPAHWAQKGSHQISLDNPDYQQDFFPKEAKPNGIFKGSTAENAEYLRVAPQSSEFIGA

| SMILES | IC50 (EGFR L858R/T790M/C797S; class symbols) | GI50 (Ba/F3-L858R/T790M/C797S; numeric values) | IC50 (A431 (WT)) | GI50 (Ba/F3-Del19/T790M/C797S; numeric values) | IC50 (EGFR Del19/T790M/C797S) | AUC(0-t) [1, 2] | Cmax [1, 2] | Tmax [1, 2] | half-life [1, 2] | IC50 (EGFR WT) | IC50 (EGFR L858R/T790M/C797S; numeric values) | GI50 (Ba/F3-L858R/T790M/C797S; class symbols) | GI50 (Ba/F3-Del19/T790M/C797S; class symbols) | AUC(0-t) [1, 3] | Cmax [1, 3] | Tmax [1, 3] | half-life [1, 3] |
| --- | --- | --- | --- | --- | --- | --- | --- | --- | --- | --- | --- | --- | --- | --- | --- | --- | --- |
| Cc1cc(Nc2ncc(Cl)c(Nc3ccccc3P(C)(C)=O)n2)ccc1N1CC2(CCC(N(C)C)CC2)C1 [Example 1, (2-((5-chloro-2-((4-(7-(dimethylamino)-2-azaspiro[3.5]nonan-2-yl)-3-methylphenyl)amino)pyrimidin-4-yl)amino)phenyl)dimethylphosphine oxide] | ≤ 2 nM | 6 nM | 48.8 nM | 5.8 nM | 0.9 nM | 1540 ng·h/mL | 141 ng/mL | 1.67 h | 392 min | 43 nM |  |  |  |  |  |  |  |
| Cc1cc(Nc2ncc(Cl)c(Nc3ccccc3P(C)(C)=O)n2)ccc1N1CC2(CCC(NC3CC3)CC2)C1 [Example 4, (2-((5-chloro-2-((4-(7-(cyclopropylamino)-2-azaspiro[3.5]nonan-2-yl)-3-methylphenyl)amino)pyrimidin-4-yl)amino)phenyl)dimethylphosphine oxide] |  |  | 26.9 nM |  | 1 nM |  |  |  |  | 21 nM | 1.5 nM | 10 to 50 nM | ≤ 10 nM | 1020 ng·h/mL | 71.3 ng/mL | 6 h | 376 min |
| CN(C)C1CC2(CCN(c3ccc(Nc4ncc(Cl)c(Nc5ccccc5P(C)(C)=O)n4)cc3Cl)CC2)C1 [Example 6, (2-((5-chloro-2-((3-chloro-4-(2-(dimethylamino)-7-azaspiro[3.5]nonan-7-yl)phenyl)amino)pyrimidin-4-yl)amino)phenyl)dimethylphosphine oxide] |  |  | 44.7 nM |  | 0.37 nM |  |  |  |  |  | 1.3 nM | 10 to 50 nM | 10 to 50 nM | 8810 ng·h/mL | 741 ng/mL | 4 h | 180 min |
| CP(C)(=O)c1ccccc1Nc1nc(Nc2ccc(N3CCC4(CC3)CC(N)C4)c(Cl)c2)ncc1Cl [Example 8, (2-((2-((4-(2-amino-7-azaspiro[3.5]nonan-7-yl)-3-chlorophenyl)amino)-5-chloropyrimidin-4-yl)amino)phenyl)dimethylphosphine oxide] |  | 17.3 nM | 57.5 nM | 21.5 nM | 0.58 nM |  |  |  |  |  | 1.6 nM |  |  | 2820 ng·h/mL | 388 ng/mL | 2.08 h | 190 min |
| Cc1cc(Nc2ncc(Cl)c(Nc3ccccc3P(C)(C)=O)n2)ccc1N1CCC2(CC1)CC(N)C2 [Example 14, (2-((2-((4-(2-amino-7-azaspiro[3.5]nonan-7-yl)-3-methylphenyl)amino)-5-chloropyrimidin-4-yl)amino)phenyl)dimethylphosphine oxide] |  | 15.1 nM | 17.5 nM | 13.2 nM | 0.31 nM |  |  |  |  | 27 nM | 1.2 nM |  |  |  |  |  |  |
